From US9937165B2, “Pharmacological chaperones for treating obesity” (Amicus Therapeutics, Inc., priority 2005, dated 2018)

Legend:
[1] = in vivo; cited from earlier work
MC4R = MC4R (Homo sapiens, UniProt P32245); details: cited from earlier work
hMC4R mutant R165W = target: T1, hMC4R mutant R165W (Homo sapiens, UniProt P32245, R165W); test: Pharmacological chaperone assay, cell surface expression by FACS, mutant R165W; assay type: cell-based
T1 construct: expressed in transfected cells; host or cells: HEK 293 cells, transient transfection
Experimental: (§1) HEK 293 cells were transiently transfected with wild-type (WT) or the following hMC4R mutants double tagged with 3HA and Venus (Enhanced Yellow Green Fluorescent Protein; EYFP): S58C; N62S; R165W; R165Q, and P299H.
(§2) FACS analysis was performed after fluorescently labeling cells with primary anti-HA.11 antibody (mouse; 1:1000 dilution) and the secondary antibody coupled to Alexa 647 (goat anti-mouse; 1:1000 dilution) dilution. Live cells (propidium iodide negative) were sorted into the following two relevant populations: • P4: Total YFP positive cells (representative of total MC4R expression) • P5: Percent of cells positive for both YFP and Alexa 647 (Alexa and YFP positive cells)/(YFP positive cells+Alexa and YFP positive cells) (representative of cell surface expression)
(§3) Briefly, cells harboring each of the above-referenced MC4R mutants (transfected as described in Example 3) were cultured with each of the antagonist compounds at concentrations of 1.0 μM and 10 μM for 12 h and evaluated for cell surface expression of MC4R using fluorescent activated cell sorting analysis as described above. Cell surface expression levels are compared between treatment and basal conditions. Percent Gain is determined according to the following: [Gain=[(% of surface expression (with treatment)−% of surface expression (w/o treatment))/% of surface expression (w/o treatment)]*100.

hMC4R mutant N62S = target: T2, hMC4R mutant N62S (Homo sapiens, UniProt P32245, N62S); test: Pharmacological chaperone assay, cell surface expression by FACS, mutant N62S; assay type: cell-based; details: 12 h
T2 construct: expressed in transfected cells; host or cells: HEK 293 cells, transient transfection
Experimental: as §1, §2, §3

hMC4R mutant P299H = target: T3, hMC4R mutant P299H (Homo sapiens, UniProt P32245, P299H); test: Pharmacological chaperone assay, cell surface expression by FACS, mutant P299H; assay type: cell-based; details: 12 h
T3 construct: expressed in transfected cells; host or cells: HEK 293 cells, transient transfection
Experimental: as §1, §2, §3

hMC4R mutant S58C = target: T4, hMC4R mutant S58C (Homo sapiens, UniProt P32245, S58C); test: Pharmacological chaperone assay, cell surface expression by FACS, mutant S58C; assay type: cell-based
T4 construct: expressed in transfected cells; host or cells: HEK 293 cells, transient transfection
Experimental: as §1, §2, §3

hMC4R mutant R165Q = target: T5, hMC4R mutant R165Q (Homo sapiens, UniProt P32245, R165Q); test: Pharmacological chaperone assay, cell surface expression by FACS, mutant R165Q; assay type: cell-based; details: 12 h
T5 construct: expressed in transfected cells; host or cells: HEK 293 cells, transient transfection
Experimental: as §1, §2, §3

T4 sequence (P32245 whole entry S58C): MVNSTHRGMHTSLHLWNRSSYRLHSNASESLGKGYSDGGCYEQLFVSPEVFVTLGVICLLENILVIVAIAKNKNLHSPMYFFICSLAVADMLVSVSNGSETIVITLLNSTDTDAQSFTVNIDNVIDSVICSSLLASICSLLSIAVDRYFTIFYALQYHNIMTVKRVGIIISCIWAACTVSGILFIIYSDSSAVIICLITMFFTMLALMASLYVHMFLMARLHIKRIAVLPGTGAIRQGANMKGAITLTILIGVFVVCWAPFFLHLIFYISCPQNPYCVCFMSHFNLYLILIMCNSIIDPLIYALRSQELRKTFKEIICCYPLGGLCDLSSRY
T3 sequence (P32245 whole entry P299H): as the sequence (P32245 whole entry S58C) above, with C58S, P299H counted along it
T1 sequence (P32245 whole entry R165W): as the sequence (P32245 whole entry S58C) above, with C58S, R165W counted along it
T5 sequence (P32245 whole entry R165Q): as the sequence (P32245 whole entry S58C) above, with C58S, R165Q counted along it
T2 sequence (P32245 whole entry N62S): as the sequence (P32245 whole entry S58C) above, with C58S, N62S counted along it
MC4R, sequence (P32245 whole entry): as the sequence (P32245 whole entry S58C) above, with C58S counted along it

| Compound | % Gain in cell surface expression (hMC4R mutant R165W; 1 μM, 12 h) | % Gain in cell surface expression (hMC4R mutant R165W; 10 μM, 12 h) | % Gain in cell surface expression (hMC4R mutant N62S; 1 μM) | % Gain in cell surface expression (hMC4R mutant N62S; 10 μM) | % Gain in cell surface expression (hMC4R mutant P299H; 1 μM) | % Gain in cell surface expression (hMC4R mutant P299H; 10 μM) | % Gain in cell surface expression (hMC4R mutant S58C; 1 μM, 12 h) | % Gain in cell surface expression (hMC4R mutant S58C; 10 μM, 12 h) | % Gain in cell surface expression (hMC4R mutant R165Q; 1 μM) | % Gain in cell surface expression (hMC4R mutant R165Q; 10 μM) | further results |
| --- | --- | --- | --- | --- | --- | --- | --- | --- | --- | --- | --- |
| O=C(N[C@H](Cc1ccc(Cl)cc1)C(=O)N1CCC(Cn2cncn2)(C2CCCCC2)CC1)[C@H]1Cc2ccccc2CN1 [Compound 1, THIQ] |  |  |  |  |  |  |  |  |  |  | PK %F [1]: %F 14; PK Cl [1]: Cl 84 mLmin/kg; PK Vd [1]: Vd 3.6 L/kg; PK t½ [1]: t½ 0.6 h |
| O=C(N[C@H](Cc1ccc(Cl)cc1)C(=O)N1CCN(c2ccccc2CN2CCCC2)CC1)[C@H]1Cc2ccccc2CN1 [Compound 2] |  |  |  |  |  |  |  |  |  |  | EC50 (MC4R): 39 nM |
| CC(CN1CCN(CC(c2ccc(F)cc2)N2CCN(C)CC2)CC1)C(=O)c1ccccc1 (stereo not shown) [Compound 3] | 467% | 675% | 25% | 343.75% | 27.78% | 77.78% | 77.5% | 130% | 300% | 508% | % Gain in cell surface expression (hMC4R mutant N62S; 10 μM, listed as compound depicted in FIG. 5): more potent; % Gain in cell surface expression (hMC4R mutant P299H; 10 μM, listed as compound shown in FIG. 5): only a small effect |
| Br.COc1ccc([N+](=O)[O-])cc1CSc1ccccc1C1=NCCCN1 [Compound 4] | 150% | 675% | 6.25% | 212.5% | 11.11% | 38.9% | 60% | 130% | 91.7% | 508% | % Gain in cell surface expression (hMC4R mutant P299H; 1 μM, listed as compound shown in FIG. 6): no effect; % Gain in cell surface expression (hMC4R mutant P299H; 10 μM, listed as compound shown in FIG. 6): no effect |
| COc1ccc(Cl)cc1Nc1nc(-c2sc(NC(=O)c3ccccc3)nc2C)cs1 [Compound 5] |  |  |  |  |  |  |  |  |  |  | % Gain in cell surface expression (hMC4R mutant R165W; concentration not given): 28.95%; % Gain in cell surface expression (hMC4R mutant S58C; concentration not given): 31.25% |
